# Test results from PMC8327158, “PEGylated AdipoRon derivatives improve glucose and lipid metabolism under insulinopenic and high-fat diet conditions” (Journal of Lipid Research, 2021).
# Tested on: HFD-fed wild-type mice
# Experiment: Sphingolipid levels in tissues and serum of HFD-fed mice by mass spectrometry
# Format: in vivo, mouse
# Conditions: for Cer 14:0 / Cer 16:0 / Cer 18:0 / Cer 18:1 / Cer 20:0 / Cer 22:0 / Cer 24:0 / Cer 24:1 / Cer 26:0 / Cer 26:1 / DeoxySphinganie / Deoxysphingosine / Hexosyl 14:0 / Hexosyl 16:0 / Hexosyl 18:0 / Hexosyl 20:0 / Hexosyl 22:0 / Hexosyl 24:0 / Hexosyl 24:1 / Lactosyl 16:0 / Lactosyl 18:0 / Lactosyl 22:0 / Lactosyl 24:1 / Lactosyl C24:0 / Sphingaine1P / Sphinganine / Sphingosine / Sphingosine1P / dCer 16:0 / dCer 18:0 / dCer 20:0 / dCer 22:0 / dCer 24:0 / dCer 24:1: 5 mg/kg twice a day 5 days, average ± SD
# Procedure: Six-week-old wild-type male mice were fed HFD for 4 weeks or 7 months In total, 5 mg/Kg of PBS, Adiporon, AdipoRonPEG5, AdipoRonPEG6HTL were injected twice a day for 5 days. After 5 days of treatment, systemic test is performed, and serum (Before and after treatment), subcutaneous, epididymal, liver, heart samples were harvested for qPCR and sphingolipid analysis.
# Flash-frozen tissue samples (~40 mg) in a borosilicate glass tube were quenched with 2.0 ml of organic extraction solvent (isopropanol: ethyl acetate, 15:85; v:v) and homogenized with a mechanical tissue disruptor. Immediately afterward, 20 μl of organic internal standard solution was added (Ceramide/Sphingoid Internal Standard Mixture II diluted 1:10 in ethanol). The mixture was vortexed for 20 s and sonicated in ultrasonic bath for 40 min at 40°C. The organic extract was allowed to reach room temperature, and 1.5 ml of HPLC water was added and a two-phase liquid-liquid extraction was performed. The upper phase was transferred to a new clean tube, and the lower aqueous phase containing the protein pellet was re-extracted with additional 2.0 ml of organic extraction solvent. The organic phases were combined and dried under nitrogen stream at 40°C. Dried extracts were stored at –80°C until analysis. For analysis of ceramides and sphingoid base species, the dried residues were reconstituted in 200 μl of methanol. Sphingomyelins required a sample dilution of 1:50 in methanol prior to analysis. Serum sphingolipids were extracted using a similar methodology requiring 25 μl of serum.
# Liver, subcutaneous adipose tissue, pancreas, pancreatic islets were initially homogenized in 500 μl of cold PBS using an ultrasonic probe disruptor and keeping the sample on ice during sonication. In total, 50 μl of aqueous homogenate was aliquoted for protein determination. In total, 400 μl of the lysate was immediately quenched in 2.0 ml of organic extraction solvent.
# In total, 5 μl of reconstituted samples was injected into an LC/MS/MS system for the analysis of ceramides and sphingoid bases, and 1 μl injection was required for the analysis of sphingomyelins. The system consisted of a Shimadzu LCMS-8050 triple-quadrupole mass spectrometer with the dual ion source operating in electrospray positive ionization mode. The mass spectrometer is coupled to a Shimadzu Nexera X2 UHPLC system equipped with three solvent delivery modules LC-30AD, three degassing units DGU-20A5R, an autosampler SIL-30ACMP, and a column oven CTO-20AC operating at 40°C (Shimadzu Scientific Instruments, Columbia, MD). Six sphingoid bases (d18:1 sphingosine, d18:1 sphingosine-1-phosphate, d18:1 deoxysphingosine, d18:0 sphinganine, d18:0 sphinganine-1-phosphate, d18:0 deoxysphinganine) and […] ceramide species and their metabolites (C16:0, C16:0 dihydroceramide, C16:0 glucosylceramide, C16:0 lactosylceramide, C16:0 sphingomyelin, C18:0, C18:0 dihydroceramide, C18:0 glucosylceramide, C18:0 sphingomyelin, C18:1, C20:0, C22:0, C22:0 glucosylceramide, C24:0, C24:0 dihydroceramide, C24:0 lactosylceramide, C24:0 sphingomyelin, C24:1, C24:1 dihydroceramide, C24:1 glucosylceramide, C24:1 sphingomyelin). Quantitative analysis of sphingolipids was achieved using selective reaction monitoring scan mode. Lipid separation was achieved by reverse phase LC on a 2.1 (i.d.) × 150 mm Ascentis Express C8, 2.7 micron (Supelco, Bellefonte, PA) column under gradient elution, using three different mobile phases: eluent A consisting of methanol/water/formic acid, 600/400/0.8, v/v/v with 5 mM ammonium formate, eluent B consisting of methanol/formic acid, 1,000/0.8, v/v with 5 mM ammonium formate, and eluent C consisting of CH3OH/CH2Cl2 350/650. The concentration of each metabolite was determined according to calibration curves using the peak-area ratio of analyte versus corresponding internal standard. Calibration curves were generated using serial dilutions of each target analyte.
structure (smiles),measurement,setting,value
O=C(COc1ccc(C(=O)c2ccccc2)cc1)NC1CCN(Cc2ccccc2)CC1 [AdipoRon],scWAT ceramide levels,5 mg/kg,neither AdipoRon nor AdipoRonPEG5 had a noticeable impact
same,hepatic dihydroceramides,IP 5 mg/kg,nor did it lower dihydroceramide
same,sphingoid bases including S1P in the liver,IP 5 mg/kg,neither increased sphingoid bases
same,Cer 14:0,liver,11180.9 ± 7129.23 pg/mg
same,Cer 16:0,liver,15452.5 ± 14214.83 pg/mg
same,Cer 18:0,liver,47128.6 ± 39264.7 pg/mg
same,Cer 18:1,liver,0 pg/mg
same,Cer 20:0,liver,2021924.3 ± 1132557.52 pg/mg
same,Cer 22:0,liver,21221267.5 ± 1938950.14 pg/mg
same,Cer 24:0,liver,8844684.8 ± 1440139.38 pg/mg
same,Cer 24:1,liver,7621686.9 ± 1072827.16 pg/mg
same,Cer 26:0,liver,108319.5 ± 12837.73 pg/mg
same,Cer 26:1,liver,87632.7 ± 14143.63 pg/mg
same,DeoxySphinganie,liver,16855.9 ± 5197.82 pg/mg
same,Deoxysphingosine,liver,554.4 ± 112.17 pg/mg
same,Hexosyl 14:0,liver,6839.3 ± 2807.56 pg/mg
same,Hexosyl 16:0,liver,2057918.6 ± 682419.73 pg/mg
same,Hexosyl 18:0,liver,13702.3 ± 11183.27 pg/mg
same,Hexosyl 20:0,liver,139906.7 ± 74494.86 pg/mg
same,Hexosyl 22:0,liver,21992555.3 ± 7887275.74 pg/mg
same,Hexosyl 24:0,liver,9407290.2 ± 3691767.57 pg/mg
same,Hexosyl 24:1,liver,7250991.4 ± 2638110.11 pg/mg
same,Lactosyl 16:0,liver,401293.8 ± 92547.01 pg/mg
same,Lactosyl 18:0,liver,0.0 ± 0.0 pg/mg
same,Lactosyl 22:0,liver,604972.0 ± 219908.19 pg/mg
same,Lactosyl 24:1,liver,424590.5 ± 191122.31 pg/mg
same,Lactosyl C24:0,liver,317251.2 ± 183613.54 pg/mg
same,Sphingaine1P,liver,55129.9 ± 14495.18 pg/mg
same,Sphinganine,liver,299552.9 ± 52030.89 pg/mg
same,Sphingosine,liver,1192462 ± 75216.97 pg/mg
same,Sphingosine1P,liver,178631.8 ± 67607.36 pg/mg
same,dCer 16:0,liver,18233.3 ± 21176.21 pg/mg
same,dCer 18:0,liver,45901.3 ± 42922.13 pg/mg
same,dCer 20:0,liver,37867.7 ± 27772.5 pg/mg
same,dCer 22:0,liver,385034 ± 150652 pg/mg
same,dCer 24:0,liver,364847.1 ± 73663.91 pg/mg
same,dCer 24:1,liver,130075.8 ± 53105.06 pg/mg
same,Cer 14:0,pancreas,26.4 ± 4.51 pg/mg
same,Cer 16:0,pancreas,26.1 ± 10.18 pg/mg
same,Cer 18:0,pancreas,28.9 ± 6.11 pg/mg
same,Cer 18:1,pancreas,0 pg/mg
same,Cer 20:0,pancreas,1529.7 ± 140.3 pg/mg
same,Cer 22:0,pancreas,7541.1 ± 1118.82 pg/mg
same,Cer 24:0,pancreas,21064.5 ± 2932.0 pg/mg
same,Cer 24:1,pancreas,10791.6 ± 1783.65 pg/mg
same,Cer 26:0,pancreas,155.6 ± 36.08 pg/mg
same,Cer 26:1,pancreas,81.6 ± 16.04 pg/mg
same,DeoxySphinganie,pancreas,2.1 ± 0.29 pg/mg
same,Deoxysphingosine,pancreas,0.0 ± 0.0 pg/mg
same,Hexosyl 14:0,pancreas,3.8 ± 0.85 pg/mg
same,Hexosyl 16:0,pancreas,2561.5 ± 453.4 pg/mg
same,Hexosyl 18:0,pancreas,7.3 ± 3.14 pg/mg
same,Hexosyl 20:0,pancreas,112.7 ± 34.01 pg/mg
same,Hexosyl 22:0,pancreas,6774.3 ± 637.6 pg/mg
same,Hexosyl 24:0,pancreas,3358.5 ± 311.97 pg/mg
same,Hexosyl 24:1,pancreas,1427.8 ± 124.45 pg/mg
same,Lactosyl 16:0,pancreas,975.8 ± 208.21 pg/mg
same,Lactosyl 18:0,pancreas,52.8 ± 9.76 pg/mg
same,Lactosyl 22:0,pancreas,223.0 ± 50.43 pg/mg
same,Lactosyl 24:1,pancreas,310.1 ± 93.68 pg/mg
same,Lactosyl C24:0,pancreas,2057.1 ± 422.83 pg/mg
same,Sphingaine1P,pancreas,17.5 ± 11.69 pg/mg
same,Sphinganine,pancreas,25.9 ± 3.48 pg/mg
same,Sphingosine,pancreas,217.3 ± 27.75 pg/mg
same,Sphingosine1P,pancreas,90.3 ± 22.26 pg/mg
same,dCer 16:0,pancreas,3.8 ± 1.52 pg/mg
same,dCer 18:0,pancreas,0.0 ± 0.0 pg/mg
same,dCer 20:0,pancreas,2.0 ± 0.18 pg/mg
same,dCer 22:0,pancreas,24.6 ± 9.85 pg/mg
same,dCer 24:0,pancreas,206.7 ± 49.68 pg/mg
same,dCer 24:1,pancreas,24.0 ± 10.28 pg/mg
same,Cer 14:0,scWAT,41670.5 ± 9888.98 pg/mg
same,Cer 16:0,scWAT,200569.4 ± 60832.18 pg/mg
same,Cer 18:0,scWAT,90968.7 ± 40221.97 pg/mg
same,Cer 18:1,scWAT,24648 ± 8680 pg/mg
same,Cer 20:0,scWAT,189778.3 ± 38166.38 pg/mg
same,Cer 22:0,scWAT,835762.6 ± 112294.65 pg/mg
same,Cer 24:0,scWAT,2316061.3 ± 1012651.99 pg/mg
same,Cer 24:1,scWAT,2616280.7 ± 714833.34 pg/mg
same,Cer 26:0,scWAT,25284.4 ± 8047.31 pg/mg
same,Cer 26:1,scWAT,27852.3 ± 8212.8 pg/mg
same,DeoxySphinganie,scWAT,1039.3 ± 1085.07 pg/mg
same,Deoxysphingosine,scWAT,0.0 ± 0.0 pg/mg
same,Hexosyl 14:0,scWAT,3863.9 ± 2313.65 pg/mg
same,Hexosyl 16:0,scWAT,1558779.8 ± 419292.53 pg/mg
same,Hexosyl 18:0,scWAT,879349.9 ± 318302.5 pg/mg
